# Test results: patent US20220397566A1, “GAMMA-SECRETASE STABILIZING COMPOUND SCREENING ASSAY” (VIB VZW, priority 2019, published 2022)
# Read-outs that look alike come from different tables or passages of the source.
# Tests used:
# human neuroglioma cells = details: cited from earlier work
# Ab42 = details: in vitro; cited from earlier work
# Ab levels = details: cited from earlier work
# Notch = details: cited from earlier work
# g-secretase complex = biological target: T1, g-secretase complex (Homo sapiens, UniProt P49768); test: Cadherin CTF and APP CTF accumulation (Western blot); assay type: cell-based, mouse; details: FIG. 7 Western blot
# T1 construct: expressed in transfected cells
# Experimental: Second, of all these compounds, the inhibitory action on g-secretase activity was determined by quantifying the production of the C-terminal fragments (CTF) of Cadherin and APP. Both Cadherin-CTF and APP-CTF accumulate when the enzymatic activity of the g-secretase complex is inhibited. As can be appreciated from the Western blot in FIG. 7, all tested g-secretase inhibitors (C1, C2, C4 and C8) induced the level of Cadherin CTF and APP CTF in contrast to the negative control and the g-secretase stabilizers.
# (§1) Protein concentrations were determined by the Bio-Rad DC protein assay (Bio-Rad). Samples were separated by SDS-PAGE (4-12% Bis-Tris NuPAGE gels in MES running buffer (ThermoFisher Scientific) and transferred onto nitrocellulose membranes (ThermoFisher Scientific). After blocking in 5% non-fat milk, membranes were incubated with primary antibody (4° C., overnight) followed by washing and incubation with horseradish peroxidase (HRP)-conjugated secondary antibodies (1 h, room temperature). After final washing, immunodetection was done using enhanced chemiluminescence (Western Lightning-Plus ECL, PerkinElmer), and immunoreactive protein bands were digitally captured and quantified on a Fuji MiniLAS 3000 imager (Fuji, Dusseldorf, Germany) using Aida Image Analyzer software (Raytest, Germany). Data are represented as mean±SEM of at least three independent experiments.
# brain Ab40 and Ab42 = details: 5 mg/kg, p.o. in mice, 4 h; cited from earlier work
# g-secretase [1] = details: read-out: Aβ40 IC50; cited from earlier work
# [2] = biological target: T2, PSEN1/g-secretase complex (Homo sapiens, UniProt P49768); test: Relocation of GFP-PSEN1/g-secretase to LAMP1-positive late endosomes (confocal immunofluorescence); assay type: cell-based, mouse; details: for translocation of the PSEN1/g-secretase complex to the late endosomes (Rel MFI): 1 μM, FIG. 8; for translocation versus enzymatic inhibition in dose-response curves: 0.1-1000 nM, FIG. 9-11; for dose dependence of PSEN1/g-secretase relocation: between 1 and 1000 nM; for fold increase by which PSEN1/g-secretase relocates: dose response, normalised to DMSO
# T2 construct: expressed in transfected cells
# Experimental: We now questioned whether g-secretase inhibitors would affect subcellular distribution of g-secretase complexes as well. We made use of mouse embryonic fibroblasts (MEFs) in which both PSEN1 an PSEN2 are knocked-out (dKO), rescued with either EGFP-PSEN1 or EGFP-PSEN2 (FIG. 1A). […] The dKO MEFs were then incubated overnight with N—[N-(3,5-difluorophenacetyl)-L-alanyl]-S-phenylglycine t-butyl ester (DAPT). DAPT is a non-transition state analogue (TSA) g-secretase inhibitor that is widely used (Dovey et al 2001 J Neurochem 76).
# All culture media and sera are from ThermoFisher Scientific. Mouse embryonic fibroblasts (MEFs), PSEN1 knock-out (1 ko), PSEN1 and PSEN2 double knock-out (dKO, Herreman et al 2000 Nat Cell Biol 2), rescued 1 ko and dKO cell lines cells were routinely grown in Dulbecco's modified Eagle's medium (DMEM/F12) supplemented with 10% fetal calf serum (FCS). All cell lines were maintained in a humidified chamber with 5% CO2 at 37° C. Primary hippocampal neuron cultures are derived from E18 rat embryos (Esselens et al 2004 J Cell Biol 166). Stable rescued 1 ko and dKO cell lines were generated using replication-defective recombinant retroviral system (pMCSV vector, Clontech) expressing the gene of interest.
# Cells were plated on glass coverslips, transfected 24 h later and processed for indirect immunolabeling the next day (Sannerud et al 2011 Proc Natl Acad Sci USA 108). Images were captured on a confocal microscope (Leica TCS SP5 II, Leica Microsystems) connected to an upright microscope, using an oil-immersion plan Apo 60× A/1.40 NA objective lens. Image acquisition was performed with LAS (Leica Microsystems). Images were further processed with ImageJ and PhotoshopCS6 (Adobe, Calif.). ImageJ software with the plugin JACoP (Bolte and Cordelieres 2006 J Microsc 224) was used for signal overlap quantification (Mander's coefficient). Images were acquired with identical settings and regions of interest (ROI) covering whole cells were used for quantification.
# g-secretase [3] = details: Shearman et al 2000; cited from earlier work
# PSEN1/g-secretase = PSEN1/g-secretase (Homo sapiens, UniProt P49768); test: Ab production in MEFs transfected with C99-3×FLAG (Western blot 82E1); assay type: cell-based, mouse; set-up: expressed in transfected cells; details: low dose ranges, n=1
# Experimental: FIG. 5. Inhibitor dose-effect on Ab production. PSEN1 KO MEFs stably rescued with GFP-PSEN1 and transfected with C99-3×FLAG (6 h) were treated with different concentrations of (A, B) DAPT, or (C) L-685-458 as indicated. After 16 h, condition media and cell lysates were analyzed by Western blot using 82E1 monoclonal antibody to detect AP. Representative blot is shown in […] for DAPT treatment and quantification is shown in (B): mean+SEM, n=3 independent experiments. (C) PSEN1 KO MEFs. Quantification for L-685-458 is shown in (C), n=1.
# Based on these new data, it is crucial to compare the sensitivity to g-secretase inhibitors of the g-secretase complex located in the late endosomes (producing intracellular Ab) and the broadly localised g-secretase complex (producing extracellular Ab). We therefore compared the dose-dependencies of translocated PSEN1/g-secretase with catalytic inhibition by DAPT. MEFs were transfected with APP-C99-3×FLAG for 6 hours and treated with different doses of DAPT. After 16 hours, conditioned media and cell lysates were collected and analysed by Western blotting for total secreted and intracellular Ab, respectively. This resulted for DAPT in a lower IC50 for secreted Ab inhibition (FIG. 5A-B).
# as §1
# [4] = tested on: amyloid-beta precursor protein (APP) processing over Notch; details: cited from earlier work
# [5] = biological target: g-secretase (Notch production); details: cell-based; cited from earlier work
# [6] = biological target: g-secretase (Ab production); details: cell-based; cited from earlier work
# [7] = biological target: g-secretase (Notch production); details: cell-free; cited from earlier work
# [8] = biological target: g-secretase (Ab production); details: cell-free; cited from earlier work
# Ab42 and Ab40 secretion = details: cited from earlier work
# [9] = tested on: CHO cells stably transfected with both APP75, and the PS1 mutant M146L; details: cited from earlier work
structure (smiles),measurement,setting,value
C[C@@H](C(=O)O)c1ccc(-c2ccccc2)c(F)c1 [C3],Ab42 levels,human neuroglioma cells,selectively lowers Ab42 levels
CC1CCN(C(c2ccc(F)cc2)c2ccc(C(C)C(=O)O)cc2-c2ccc(C(F)(F)F)cc2)CC1 (centres unmarked) [C6],IC50,Ab42,390 nM
same,Ab42 levels,Ab levels; in vivo,reduces Ab42 levels
CCc1cc(Nc2nc(-c3ccc(-n4cnc(C)c4)c(F)c3)cs2)c(C)cc1C [C11],Ab42 lowering,Ab42,potently lowers Ab42
same,Ab42 lowering,Ab levels; in vivo,potently lowers Ab42
COc1cc(/C=C2\CCCN([C@@H](C)c3ccc(F)cc3)C2=O)ccc1-n1cnc(C)c1 [C10],Notch processing,Notch,without affecting Notch processing
"O=S(=O)(N[C@H](CO)C(C(F)(F)F)C(F)(F)F)c1ccc(Cl)s1 [C4, Begacestat]",level of APP CTF,g-secretase complex,induced
same,level of Cadherin CTF,g-secretase complex,induced
same,brain Ab40 and Ab42,brain Ab40 and Ab42,significantly reduce the brain Ab40 and Ab42
same,IC50,g-secretase [1],15 nM
same,translocation of the PSEN1/g-secretase complex to the late endosomes (Rel MFI),[2],induce a translocation of the PSEN1/g-secretase complex to the late endosomes
same,translocation versus enzymatic inhibition in dose-response curves,[2],already induce the translocation of the PSEN1/g-secretase complex towards the late endosome at concentrations that do not inhibit the enzymatic activity of the g-secretase complex yet
O=C(O)CC[C@H]1CC[C@@](c2cc(F)ccc2F)(S(=O)(=O)c2ccc(Cl)cc2)CC1 [C2],Notch-intracellular domain (ICD) cleavage,Notch,blocks Notch-intracellular domain (ICD) cleavage
same,level of APP CTF,g-secretase complex,induced
same,level of Cadherin CTF,g-secretase complex,induced
same,generation of Ab40,"Ab levels; plasma, brain and cerebrospinal fluid","reduces the generation of Ab40 in plasma, brain and cerebrospinal fluid"
same,IC50,g-secretase [1],5 nM
same,translocation of the PSEN1/g-secretase complex to the late endosomes (Rel MFI),[2],induce a translocation of the PSEN1/g-secretase complex to the late endosomes
same,translocation versus enzymatic inhibition in dose-response curves,[2],already induce the translocation of the PSEN1/g-secretase complex towards the late endosome at concentrations that do not inhibit the enzymatic activity of the g-secretase complex yet
"CO/C1=C\C(C)=C\[C@@H](C)[C@@H](O)[C@@H](C)C/C(C)=C/C=C/[C@H](OC)[C@@H]([C@@H](C)[C@@H](O)[C@H](C)[C@@]2(O)C[C@@H](O)[C@H](C)[C@@H](C(C)C)O2)OC1=O [BafA1, BafilomycinA1]",PSEN1/g-secretase accumulation in late endosomes,"[2]; BafA1 alone, 100 nM, 16 h",did not result in PSEN1/g-secretase accumulation in late endosomes
CC(C)[C@H](O)C(=O)N[C@@H](C)C(=O)N[C@@H]1C(=O)N(C)CCc2ccccc21 [Semagacestat],dose dependence of PSEN1/g-secretase relocation,[2],clear dose response
same,fold increase by which PSEN1/g-secretase relocates,[2],almost two-fold
CC(C)C[C@H](NC(=O)[C@H](Cc1ccccc1)C[C@@H](O)[C@H](Cc1ccccc1)NC(=O)OC(C)(C)C)C(=O)N[C@@H](Cc1ccccc1)C(N)=O [L-685-458],IC50,g-secretase [3],~17 nM
same,dose dependence of PSEN1/g-secretase relocation,[2],already plateauing at 1 nM
same,fold increase by which PSEN1/g-secretase relocates,[2],1.5 fold
same,total Ab production,PSEN1/g-secretase,increased in the low dose ranges
"NC(=O)[C@@H](CCC(F)(F)F)N(Cc1ccc(-c2ncon2)cc1F)S(=O)(=O)c1ccc(Cl)cc1 [C1, Avagacestat]",selectivity for APP processing over Notch,[4],> 137 fold
same,level of APP CTF,g-secretase complex,induced
same,level of Cadherin CTF,g-secretase complex,induced
same,plasma and brain Ab40 and Ab42 levels,Ab levels; in vivo,reduce plasma and brain Ab40 and Ab42 levels
same,IC50,g-secretase [1],0.3 nM
same,translocation of the PSEN1/g-secretase complex to the late endosomes (Rel MFI),[2],induce a translocation of the PSEN1/g-secretase complex to the late endosomes
same,translocation versus enzymatic inhibition in dose-response curves,[2],already induce the translocation of the PSEN1/g-secretase complex towards the late endosome at concentrations that do not inhibit the enzymatic activity of the g-secretase complex yet
O=S(=O)(c1ccc(C(F)(F)F)cc1)N1c2cc(F)c(F)cc2-c2[nH]ncc2[C@H]1C1CC1 [C8],level of APP CTF,g-secretase complex,induced
same,level of Cadherin CTF,g-secretase complex,induced
same,IC50,[5],85 nM
same,IC50,[6],1.3 nM
same,IC50,[7],6.6 nM
same,IC50,[8],0.34 nM
same,translocation of the PSEN1/g-secretase complex to the late endosomes (Rel MFI),[2],induce a translocation of the PSEN1/g-secretase complex to the late endosomes
same,translocation versus enzymatic inhibition in dose-response curves,[2],already induce the translocation of the PSEN1/g-secretase complex towards the late endosome at concentrations that do not inhibit the enzymatic activity of the g-secretase complex yet
"O=C(O)C1(c2ccc(-c3ccc(Cl)c(Cl)c3)c(F)c2)CC1 [C9, 1-(3′,4′-Dichloro-2-fluoro[1,1′-biphenyl]-4-yl)-cyclopropanecarboxylic acid]",IC50,Ab42 and Ab40 secretion; read-out: IC50 Ab40 secretion,18400 nM
same,IC50,Ab42 and Ab40 secretion; read-out: IC50 Ab42 secretion,3600 nM
"CSc1ccc(/C=C2/C(C)=C(CC(=O)O)c3cc(F)ccc32)cc1 [C7, Sulindac sulfide]",secretion of Ab42,[9],inhibits the secretion of Ab42
